From patent publication US10604526B2, “Chemokine receptor modulators and uses thereof” (RAPT THERAPEUTICS, INC., priority 2016, dated 2020)

Molecular target: T1, hCCR4 (Homo sapiens, UniProt P51679)
T1 sequence (P51679 1-360): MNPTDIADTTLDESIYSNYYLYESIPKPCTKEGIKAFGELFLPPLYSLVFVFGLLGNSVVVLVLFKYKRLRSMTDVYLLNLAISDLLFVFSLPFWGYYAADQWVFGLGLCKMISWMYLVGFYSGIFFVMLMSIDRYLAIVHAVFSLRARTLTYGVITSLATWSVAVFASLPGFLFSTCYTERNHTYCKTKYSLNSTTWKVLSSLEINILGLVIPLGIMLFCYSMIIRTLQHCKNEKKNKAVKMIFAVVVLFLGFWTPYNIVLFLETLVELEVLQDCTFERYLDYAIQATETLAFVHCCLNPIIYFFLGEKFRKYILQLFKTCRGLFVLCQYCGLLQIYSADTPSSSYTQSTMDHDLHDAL
Assay: Calcium flux assay
Format: cell-based
Conditions: Chem5-hCCR4 cells, CCL22 at EC80 of 1.5 nM, FLIPR Calcium 6 dye; read-out: Potency (IC50)
Method in brief: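 Chem5 cells expressing hCCR4 were serum-starved for 2 h, loaded with Calcium 6 dye plus 2.5 mM probenecid, then given compound for 1 h at 37 °C (0.5% DMSO). CCL22 was added from a 7.5 nM working solution (5× EC80 of 1.5 nM). IC50 came from ΔF/Fmin (485/525 nm) by 4-parameter fit.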

Row | IC50 [nM] | Compound
1 | < 100 | Cc1nn([C@H](C)c2ccc(Cl)cc2Cl)c2nc(N3CC([C@H]4CCCN(CCCS(C)(=O)=O)C4)C3)cnc12 (single isomer, unassigned) [Example 114]
2 | 100 to 500 | C[C@H](c1ccc(Cl)cc1Cl)n1nc(C(F)(F)F)c2ncc(N3CC([C@@H]4CCCN(CCCS(C)(=O)=O)C4)C3)nc21 (single isomer, unassigned) [Example 115]
3 | < 100 | C[C@H](c1ccc(Cl)cc1Cl)n1nc(C(F)(F)F)c2ncc(N3CC([C@H]4CCCN(CCCS(C)(=O)=O)C4)C3)nc21 (single isomer, unassigned) [Example 116]
4 | < 100 | C[C@H](c1ccc(Cl)cc1F)n1nc(C#N)c2ncc(N3CC([C@H]4CCCN(CCO)C4)C3)nc21 [Example 55, 1-((R)-1-(4-chloro-2-fluorophenyl)ethyl)-6-(3-((R)-1-(2-hydroxyethyl)piperidin-3-yl)azetidin-1-yl)-1H-pyrazolo[3,4-b]pyrazine-3-carbonitrile]
5 | 100 to 500 | CC(C)N1CCC[C@H](C2CN(c3cnc4c(C(F)(F)F)nn([C@H](C)c5ccc(Cl)cc5Cl)c4n3)C2)C1 [Example 102, 1-((R)-1-(2,4-dichlorophenyl)ethyl)-6-(3-((R)-1-isopropylpiperidin-3-yl)azetidin-1-yl)-3-(trifluoromethyl)-1H-pyrazolo[3,4-b]pyrazine]
6 | < 100 | C[C@H](c1ccc(Cl)cc1Cl)n1nc(C(F)(F)F)c2ncc(N3CC([C@H]4CCCN(C[C@@H](C)O)C4)C3)nc21 [Example 103, (R)-1-((R)-3-(1-(1-((R)-1-(2,4-dichlorophenyl)ethyl)-3-(trifluoromethyl)-1H-pyrazolo[3,4-b]pyrazin-6-yl)azetidin-3-yl)piperidin-1-yl)propan-2-ol]
7 | < 100 | C[C@H](O)CN1CCC[C@H](C2CN(c3cnc4c(C(F)(F)F)nn([C@H](C)c5ccc(Cl)cc5Cl)c4n3)C2)C1 [Example 104, (S)-1-((R)-3-(1-(1-((R)-1-(2,4-dichlorophenyl)ethyl)-3-(trifluoromethyl)-1H-pyrazolo[3,4-b]pyrazin-6-yl)azetidin-3-yl)piperidin-1-yl)propan-2-ol]
8 | < 100 | CC(=O)N[C@H](C)CN1CCC[C@H](C2CN(c3cnc4c(C(F)(F)F)nn([C@H](C)c5ccc(Cl)cc5Cl)c4n3)C2)C1 [Example 105, N—((R)-1-((R)-3-(1-(1-((R)-1-(2,4-dichlorophenyl)ethyl)-3-(trifluoromethyl)-1H-pyrazolo[3,4-b]pyrazin-6-yl)azetidin-3-yl)piperidin-1-yl)propan-2-yl)acetamide]
9 | < 100 | CC(=O)N[C@@H](C)CN1CCC[C@H](C2CN(c3cnc4c(C(F)(F)F)nn([C@H](C)c5ccc(Cl)cc5Cl)c4n3)C2)C1 [Example 106, N—((S)-1-((R)-3-(1-(1-((R)-1-(2,4-dichlorophenyl)ethyl)-3-(trifluoromethyl)-1H-pyrazolo[3,4-b]pyrazin-6-yl)azetidin-3-yl)piperidin-1-yl)propan-2-yl)acetamide]

Row | Compound | IC50 [nM]
10 | N-(2-((R)-3-(1-(1-((R)-1-(2,4-dichlorophenyl)ethyl)-3-(trifluoromethyl)-1H-pyrazolo[3,4-b]pyrazin-6-yl)azetidin-3-yl)piperidin-1-yl)ethyl)propane-2-sulfonamide and N-(2-((S)-3-(1-(1-((R)-1-(2,4-dichlorophenyl)ethyl)-3-(trifluoromethyl)-1H-pyrazolo[3,4-b]pyrazin-6-yl)azetidin-3-yl)piperidin-1-yl)ethyl)propane-2-sulfonamide [Example 66] | < 100
